US9851354B2, “Methods of treating fragile X syndrome and related disorders” (Alcobra Ltd., priority 2013, dated 2017)

Assays:
[1] = test system: Fmr1 knockout (KO) or Wild Type (WT) mice; assay: Successive alleys (anxiety and hyperactivity); assay type: in vivo, mouse; conditions: 2 months old, 150 mg/kg once daily 7 days, Study 1
Method: Fmr1 knockout mice (KO2) mice (The Dutch-Belgium Fragile X Consortium, 1994), initially obtained from the Jackson Laboratory, and wild type (WT) littermates were generated on a C57BL/6J background and repeatedly backcrossed onto a C57BL/6J background for more than eight generations. The Fmr1 knockout mice were housed in groups of the same genotype in a temperature and humidity controlled room with a 12-h light-dark cycle (lights on from 7 am to 7 pm; testing was conducted during light phase). Room temperature and humidity were recorded continuously in the holding room while food and water were available ad libitum. Testing was conducted on healthy Fmr1 knockout mice and their wild type littermates (N=10 mice per treatment group) at 2 or 6 months of age during the behavioral experiments. Mice were housed in commercial plastic cages and experiments were conducted in line with the requirements of the UK Animals (Scientific Procedures) Act, 1986. All experiments were conducted with experimenters blind to genotype and drug treatment. Animals were allowed a minimum acclimatization period of one week prior to performing any experiment. No prophylactic or therapeutic treatment was administered during the acclimatization period.
(§1) In all cases, saline was used as a vehicle (control).
The apparatus consisted of four successive, linearly arranged, increasingly anxiogenic alleys (each succeeding alley was painted a lighter color, had lower walls and/or was narrower than the previous alley) made of painted wood. Each section or alley was 25 cm long. Alley 1 had 25 cm high walls, was 8.5 cm wide, and was painted black. A 0.5 cm step down led to alley 2, which was again 8.5 cm wide, but had 1.3 cm high walls and was grey. A 1.0 cm step down led to alley 3, which was 3.5 cm wide, had 0.8 cm high walls, and was white. A 0.4 cm step led down to alley 4, which was also white, but had 1.2 cm wide and 0.2 cm high walls. The apparatus was elevated by anchoring the back of alley 1 to a stand, 50 cm high. Padding was provided under arms 3 and 4 in case a mouse fell off. Each mouse was placed at the closed end of alley 1 facing the wall. Timers were started 1) for the overall length of the test (5 min)+the latency to enter each arm, and 2) for the time spent in alley 1. When the mouse placed all 4 feet on to the next alley, it was considered to have entered the alley. Total time spent in each alley (all four feet) was recorded.
Multivariate analysis of variance was employed to assess group differences across data. Repeated measures ANOVA were performed for behavioral data. Statistically significant effects in each ANOVA were followed with post hoc comparisons, using the Newman-Keuls test (Study 1) or the Tukey test (Study 2). A p value of less than 0.05 was considered significant.
The successive alleys test effectively measured anxiety (latency to enter the Alley 1) and hyperactivity (Alleys 2 to 4). Progression from Alley 1 through the successive Alleys 2, 3, and 4 was associated with exposure to an increasingly brightly colored environment with increasingly lower walls and narrower, more exposed open arms. Time spent on, and entries into, the open arms indicated anxiety; conversely, increasing time spent in more open arms reflected hyperactivity. These factors allowed for a sensitive test bracketing a range of anxiety-like behaviors together with hyperactivity.

[2] = test system: hippocampal slices from Fmr1 knockout or WT mice; assay: De novo hippocampal protein synthesis in vitro (SUnSET); assay type: cell-based, mouse; conditions: hippocampal slices from Fmr1 KO mice, 300 μM
Method: as §1
Transverse hippocampal slices (400 μm) were obtained from 6-week-old Fmr1 knockout and WT mice. A protein synthesis assay was performed as previously described using the nonradioactive fluorescence-activated cell sorting-based assay, surface sensing of translation (SUnSET) method, which allows the monitoring and quantification of global protein synthesis in individual mammalian cells and in heterogeneous cell populations. (Hoeffer, 2011).

[3] = test system: Akt; assay: Brain phosphorylation of Akt (western blot); assay type: in vivo, mouse
Method: as §1
The Ras-Mek-ERK and PI3K-Akt-mToR signaling pathways are involved in mediating activity dependent alterations in gene transcription underlying changes in synaptic plasticity (Klann and Dever, 2004). Phosphorylated ERK and Akt protein expression was measured by western blot analysis as previously described by Lopez Verrilli (Lopez Verrilli et al., 2009). The antibodies employed were anti-phosphospecific antibodies against Akt (1/1000) and kinase (ERK) 1/2 (1/2000) (Cell Signaling Technology, Danvers, Mass., USA). The antibody against phospho-ERK detects phosphorylation at phospho-ERK 1/2 (Thr202/Tyr204) whereas the antibody against phospho-Akt detects phosphorylation at phospho-Akt (Thr308). Total Akt and ERK 1/2 protein content and phosphorylated ERK and Akt were evaluated by blotting membranes with antiphospho-Akt (1/1000) and antiphospho-ERK antibodies (1/2000) (Cell Signaling Technology, Danvers, Mass., USA). Akt or ERK phosphorylation was normalized to protein content in the same sample and expressed as % of change with respect to basal conditions, considering basal levels as 100%. Protein loading was evaluated by stripping and re-blotting membranes with j-actin antibody (1/1000) (Sigma-Aldrich, St. Louis, Mo., USA). Phosphorylated ERK and Akt protein expression in blood lymphocytes was measured by flow cytometry. For lymphocyte biomarker determinations, a FACStar plus (Becton Dickinson) was used with the excitation laser tuned at 488 nm and green fluorescence from FITC (GST) was collected through a 515-545 nm bandpass filter. The mean FITC fluorescence Intensity was calculated in relation to the fluorescence of reference cells. The mean cellular fluorescence intensity (MFI) is directly proportional to the mean number of Ab molecules bound per cell.

[4] = Fmr1 KO mice, 2 months old, 150 mg/kg ip 7 days, Study 2

Cc1ncc(CO)c(CO)c1O.O=C1CC[C@@H](C(=O)O)N1 [metadoxine, pyridoxol L,2-pyrrolidon-5 carboxylate]
successive alleys, Alley 1 (anxiety) ([1]; Fmr1 KO mice): complete normalization occurred
successive alleys, Alley 2 (hyperactivity) ([1]; Fmr1 KO mice): reversal of hyperactivity was partial
successive alleys, Alley 3 (hyperactivity) ([1]; Fmr1 KO mice): hyperactivity was not reversed
successive alleys, Alley 4 (hyperactivity) ([1]; Fmr1 KO mice): reversed this hyperactivity
successive alleys, Alley 1 (anxiety) ([1]; WT mice): no effect on WT mice
successive alleys, Alley 2 (activity) ([1]; WT mice): no effect on WT mice
successive alleys, Alley 3 (activity) ([1]; WT mice): no effect on WT mice
successive alleys, Alley 4 (activity) ([1]; WT mice): no effect on WT mice
basal de novo protein synthesis [2]: reduced protein synthesis rates in Fmr1 knockout mouse hippocampi. This effect was partial
pAkt levels in hippocampus [3, 4]: complete reversal of activation of Akt
pAkt levels in pre-frontal cortex [3, 4]: complete reversal of activation of Akt
pAkt levels in striatum [3, 4]: complete reversal of activation of Akt
whole brain levels of pAkt ([3]; Fmr1 KO mice, 6 months old, 150 mg/kg ip once daily 7 days): reversed this increase in brain pAkt
pAkt levels in hippocampus, pre-frontal cortex and striatum ([3]; WT mice, 2 months old, 150 mg/kg ip 7 days, Study 2): without effect on WT mice
whole brain phosphorylated Akt ([3]; WT mice, 2 months old, 150 mg/kg ip once daily 7 days, Study 1): no effect on WT mice
whole brain total Akt levels ([3]; any mice (KO or WT), 2 months old, 150 mg/kg ip once daily 7 days, Study 1): no effect
